Data from article PMC6757289, “Design and Characterization of SGK3-PROTAC1, an Isoform Specific SGK3 Kinase PROTAC Degrader” (ACS Chemical Biology, 2019).
Where two headings read alike, the source gives them in different places.

Tests used:
Test in all cases: kinase profiling panel
Assay type in all cases: biochemical
Details in all cases: read-out: % Activity Remaining
CHK1 = biological target: T1, CHK1 (Homo sapiens, UniProt O14757)
T1 sequence (O14757 1-476): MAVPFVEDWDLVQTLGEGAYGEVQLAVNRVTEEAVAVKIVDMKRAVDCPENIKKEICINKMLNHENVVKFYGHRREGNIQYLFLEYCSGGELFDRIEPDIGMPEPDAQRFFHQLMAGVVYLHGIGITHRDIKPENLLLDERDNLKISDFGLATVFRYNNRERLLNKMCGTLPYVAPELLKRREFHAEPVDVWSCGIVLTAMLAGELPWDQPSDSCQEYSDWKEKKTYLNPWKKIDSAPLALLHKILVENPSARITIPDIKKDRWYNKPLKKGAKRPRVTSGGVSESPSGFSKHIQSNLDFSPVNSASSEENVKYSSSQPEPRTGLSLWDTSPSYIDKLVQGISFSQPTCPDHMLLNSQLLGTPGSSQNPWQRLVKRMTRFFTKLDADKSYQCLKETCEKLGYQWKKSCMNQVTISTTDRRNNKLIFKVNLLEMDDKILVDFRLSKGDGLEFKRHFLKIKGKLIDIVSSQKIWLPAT
Text: (§1) Protein kinase profiling against a Dundee panel of 140 protein kinases was undertaken at the International Centre for Protein Kinase Profiling. The result for each kinase was presented as a mean kinase activity of the reaction taken in triplicate relative to a control sample treated with DMSO. Assay conditions and abbreviations are available at http://www.kinase-screen.mrc.ac.uk.

ERK1 = ERK1 (Homo sapiens, UniProt P27361)
Chain of ERK1 (P27361 whole entry): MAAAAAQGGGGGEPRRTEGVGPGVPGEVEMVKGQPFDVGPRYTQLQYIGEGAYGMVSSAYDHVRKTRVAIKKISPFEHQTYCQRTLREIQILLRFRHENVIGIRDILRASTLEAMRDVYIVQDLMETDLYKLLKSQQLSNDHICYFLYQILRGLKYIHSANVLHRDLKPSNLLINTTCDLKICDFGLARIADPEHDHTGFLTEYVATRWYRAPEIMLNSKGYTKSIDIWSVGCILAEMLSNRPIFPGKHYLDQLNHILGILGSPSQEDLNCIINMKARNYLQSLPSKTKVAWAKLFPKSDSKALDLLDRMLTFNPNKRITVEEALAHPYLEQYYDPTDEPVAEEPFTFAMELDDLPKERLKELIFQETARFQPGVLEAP
Text: as §1

MAP4K5 = MAP4K5 (Homo sapiens, UniProt Q9Y4K4)
Chain of MAP4K5 (Q9Y4K4 whole entry): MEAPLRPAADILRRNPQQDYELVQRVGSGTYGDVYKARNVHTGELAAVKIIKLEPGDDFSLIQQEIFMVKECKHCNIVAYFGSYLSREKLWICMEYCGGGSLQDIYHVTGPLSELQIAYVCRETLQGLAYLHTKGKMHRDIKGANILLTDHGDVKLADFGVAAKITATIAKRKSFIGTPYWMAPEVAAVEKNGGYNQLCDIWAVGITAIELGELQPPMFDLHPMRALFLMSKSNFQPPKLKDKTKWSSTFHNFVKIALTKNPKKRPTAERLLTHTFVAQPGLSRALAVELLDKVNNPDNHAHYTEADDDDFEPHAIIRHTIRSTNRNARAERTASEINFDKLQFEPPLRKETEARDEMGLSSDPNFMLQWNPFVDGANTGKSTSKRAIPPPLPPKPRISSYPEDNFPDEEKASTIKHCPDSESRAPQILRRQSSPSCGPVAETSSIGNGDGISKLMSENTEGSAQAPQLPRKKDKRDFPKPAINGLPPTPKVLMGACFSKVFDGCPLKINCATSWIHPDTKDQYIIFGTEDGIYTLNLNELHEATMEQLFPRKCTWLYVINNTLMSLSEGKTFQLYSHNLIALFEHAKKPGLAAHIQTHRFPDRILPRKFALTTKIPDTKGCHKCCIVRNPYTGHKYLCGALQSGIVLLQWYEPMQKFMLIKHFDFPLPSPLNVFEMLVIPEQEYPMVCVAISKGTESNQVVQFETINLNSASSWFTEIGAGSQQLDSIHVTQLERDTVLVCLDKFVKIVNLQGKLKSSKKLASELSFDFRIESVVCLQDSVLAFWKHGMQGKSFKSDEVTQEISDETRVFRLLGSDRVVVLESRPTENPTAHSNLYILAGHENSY
Text: as §1

MELK = MELK (Homo sapiens, UniProt Q14680)
Chain of MELK (Q14680 whole entry): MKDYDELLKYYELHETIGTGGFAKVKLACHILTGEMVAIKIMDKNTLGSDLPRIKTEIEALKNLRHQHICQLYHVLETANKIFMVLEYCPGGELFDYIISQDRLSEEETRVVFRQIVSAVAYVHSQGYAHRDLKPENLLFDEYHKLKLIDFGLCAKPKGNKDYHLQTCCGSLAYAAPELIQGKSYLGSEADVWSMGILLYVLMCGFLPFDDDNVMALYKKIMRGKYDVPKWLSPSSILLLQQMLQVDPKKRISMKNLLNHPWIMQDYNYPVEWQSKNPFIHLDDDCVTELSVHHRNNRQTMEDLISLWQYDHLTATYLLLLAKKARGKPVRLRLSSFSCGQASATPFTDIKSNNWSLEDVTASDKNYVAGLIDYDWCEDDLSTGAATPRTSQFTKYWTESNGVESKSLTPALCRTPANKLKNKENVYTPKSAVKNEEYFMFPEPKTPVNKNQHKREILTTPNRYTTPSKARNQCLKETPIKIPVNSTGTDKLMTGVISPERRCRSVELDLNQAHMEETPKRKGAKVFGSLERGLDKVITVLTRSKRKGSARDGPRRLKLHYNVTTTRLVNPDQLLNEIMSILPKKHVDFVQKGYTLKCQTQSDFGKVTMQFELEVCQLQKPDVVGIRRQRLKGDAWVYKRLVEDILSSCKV
Text: as §1

MINK1 = MINK1 (Homo sapiens, UniProt Q8N4C8)
Chain of MINK1 (Q8N4C8 whole entry): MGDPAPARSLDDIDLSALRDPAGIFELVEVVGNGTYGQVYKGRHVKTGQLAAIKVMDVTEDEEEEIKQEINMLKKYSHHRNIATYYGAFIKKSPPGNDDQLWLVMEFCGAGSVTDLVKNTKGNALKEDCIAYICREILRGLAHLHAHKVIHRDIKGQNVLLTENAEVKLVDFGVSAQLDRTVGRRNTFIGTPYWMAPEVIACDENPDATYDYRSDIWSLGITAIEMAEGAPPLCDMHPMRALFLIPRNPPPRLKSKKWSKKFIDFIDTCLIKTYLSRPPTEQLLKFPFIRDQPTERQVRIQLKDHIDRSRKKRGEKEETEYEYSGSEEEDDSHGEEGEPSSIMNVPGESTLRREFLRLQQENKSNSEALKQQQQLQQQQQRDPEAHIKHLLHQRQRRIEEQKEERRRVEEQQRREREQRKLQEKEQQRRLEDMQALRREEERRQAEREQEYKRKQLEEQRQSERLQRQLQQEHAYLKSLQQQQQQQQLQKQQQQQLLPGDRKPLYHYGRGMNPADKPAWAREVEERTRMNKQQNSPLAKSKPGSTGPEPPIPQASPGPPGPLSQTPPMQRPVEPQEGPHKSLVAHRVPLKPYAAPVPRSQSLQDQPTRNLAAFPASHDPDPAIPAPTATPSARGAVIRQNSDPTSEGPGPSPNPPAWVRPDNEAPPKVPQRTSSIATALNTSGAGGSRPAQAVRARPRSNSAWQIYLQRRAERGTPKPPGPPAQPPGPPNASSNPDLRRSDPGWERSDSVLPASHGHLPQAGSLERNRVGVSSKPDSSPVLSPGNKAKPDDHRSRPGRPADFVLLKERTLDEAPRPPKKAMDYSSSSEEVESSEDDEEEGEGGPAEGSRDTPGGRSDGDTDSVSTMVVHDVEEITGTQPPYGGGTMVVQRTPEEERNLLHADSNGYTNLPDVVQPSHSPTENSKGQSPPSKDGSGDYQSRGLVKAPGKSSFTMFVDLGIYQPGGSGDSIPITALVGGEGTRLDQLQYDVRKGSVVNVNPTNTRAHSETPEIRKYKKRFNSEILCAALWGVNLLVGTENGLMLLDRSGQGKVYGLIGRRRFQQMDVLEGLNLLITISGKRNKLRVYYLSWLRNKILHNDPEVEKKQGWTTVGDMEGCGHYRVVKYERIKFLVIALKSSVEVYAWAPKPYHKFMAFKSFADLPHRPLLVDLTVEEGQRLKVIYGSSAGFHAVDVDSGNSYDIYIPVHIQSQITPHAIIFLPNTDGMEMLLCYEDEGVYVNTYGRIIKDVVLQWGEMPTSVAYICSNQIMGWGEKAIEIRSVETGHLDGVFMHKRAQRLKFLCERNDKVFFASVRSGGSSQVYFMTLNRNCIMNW
Text: as §1

MKK2 = MKK2 (Homo sapiens, UniProt P36507)
Chain of MKK2 (P36507 whole entry): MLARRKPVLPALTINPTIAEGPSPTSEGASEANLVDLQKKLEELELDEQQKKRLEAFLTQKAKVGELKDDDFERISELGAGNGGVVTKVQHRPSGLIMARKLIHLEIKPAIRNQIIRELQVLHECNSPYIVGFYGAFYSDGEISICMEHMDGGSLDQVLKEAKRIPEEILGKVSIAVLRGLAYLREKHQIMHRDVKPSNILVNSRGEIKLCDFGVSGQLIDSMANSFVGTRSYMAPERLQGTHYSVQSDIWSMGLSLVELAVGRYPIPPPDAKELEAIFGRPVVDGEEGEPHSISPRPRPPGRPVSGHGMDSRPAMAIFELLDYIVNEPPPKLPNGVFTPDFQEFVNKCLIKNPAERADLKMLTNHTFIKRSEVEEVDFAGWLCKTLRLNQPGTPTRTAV
Text: as §1

RSK1 = RSK1 (Homo sapiens, UniProt Q15418)
Chain of RSK1 (Q15418 whole entry): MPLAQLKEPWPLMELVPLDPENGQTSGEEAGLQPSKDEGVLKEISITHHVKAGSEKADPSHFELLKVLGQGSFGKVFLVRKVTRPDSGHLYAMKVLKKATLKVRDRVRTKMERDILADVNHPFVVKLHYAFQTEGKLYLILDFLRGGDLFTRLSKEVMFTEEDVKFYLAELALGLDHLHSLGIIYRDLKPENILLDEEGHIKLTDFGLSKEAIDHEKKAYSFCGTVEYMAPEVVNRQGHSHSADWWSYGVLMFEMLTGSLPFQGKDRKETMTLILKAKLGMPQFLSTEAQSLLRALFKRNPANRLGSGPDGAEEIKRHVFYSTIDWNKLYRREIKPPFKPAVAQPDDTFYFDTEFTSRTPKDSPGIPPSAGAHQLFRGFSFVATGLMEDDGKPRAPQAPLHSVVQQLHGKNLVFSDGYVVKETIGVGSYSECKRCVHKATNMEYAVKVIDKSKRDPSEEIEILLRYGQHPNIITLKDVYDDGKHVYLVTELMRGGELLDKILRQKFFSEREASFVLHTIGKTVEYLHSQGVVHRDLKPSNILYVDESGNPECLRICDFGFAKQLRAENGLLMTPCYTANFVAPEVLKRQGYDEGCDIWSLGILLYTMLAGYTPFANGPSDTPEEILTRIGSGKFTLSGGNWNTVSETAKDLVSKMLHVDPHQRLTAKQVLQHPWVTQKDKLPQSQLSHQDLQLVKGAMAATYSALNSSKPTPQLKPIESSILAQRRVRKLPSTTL
Text: as §1

TAK1 = biological target: T2, TAK1 (Homo sapiens, UniProt O43318)
T2 sequence (O43318 1-303 limits assumed): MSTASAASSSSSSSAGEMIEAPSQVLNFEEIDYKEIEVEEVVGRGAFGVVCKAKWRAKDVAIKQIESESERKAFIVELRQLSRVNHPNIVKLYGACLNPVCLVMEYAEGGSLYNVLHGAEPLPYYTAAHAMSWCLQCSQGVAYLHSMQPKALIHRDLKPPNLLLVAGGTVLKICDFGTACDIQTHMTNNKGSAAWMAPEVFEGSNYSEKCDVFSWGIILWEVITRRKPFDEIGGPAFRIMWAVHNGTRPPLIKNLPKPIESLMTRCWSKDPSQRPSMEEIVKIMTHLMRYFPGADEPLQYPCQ
Text: as §1

TAO1 = biological target: T3, TAO1 (Homo sapiens, UniProt Q7L7X3)
T3 sequence (Q7L7X3 1-1001): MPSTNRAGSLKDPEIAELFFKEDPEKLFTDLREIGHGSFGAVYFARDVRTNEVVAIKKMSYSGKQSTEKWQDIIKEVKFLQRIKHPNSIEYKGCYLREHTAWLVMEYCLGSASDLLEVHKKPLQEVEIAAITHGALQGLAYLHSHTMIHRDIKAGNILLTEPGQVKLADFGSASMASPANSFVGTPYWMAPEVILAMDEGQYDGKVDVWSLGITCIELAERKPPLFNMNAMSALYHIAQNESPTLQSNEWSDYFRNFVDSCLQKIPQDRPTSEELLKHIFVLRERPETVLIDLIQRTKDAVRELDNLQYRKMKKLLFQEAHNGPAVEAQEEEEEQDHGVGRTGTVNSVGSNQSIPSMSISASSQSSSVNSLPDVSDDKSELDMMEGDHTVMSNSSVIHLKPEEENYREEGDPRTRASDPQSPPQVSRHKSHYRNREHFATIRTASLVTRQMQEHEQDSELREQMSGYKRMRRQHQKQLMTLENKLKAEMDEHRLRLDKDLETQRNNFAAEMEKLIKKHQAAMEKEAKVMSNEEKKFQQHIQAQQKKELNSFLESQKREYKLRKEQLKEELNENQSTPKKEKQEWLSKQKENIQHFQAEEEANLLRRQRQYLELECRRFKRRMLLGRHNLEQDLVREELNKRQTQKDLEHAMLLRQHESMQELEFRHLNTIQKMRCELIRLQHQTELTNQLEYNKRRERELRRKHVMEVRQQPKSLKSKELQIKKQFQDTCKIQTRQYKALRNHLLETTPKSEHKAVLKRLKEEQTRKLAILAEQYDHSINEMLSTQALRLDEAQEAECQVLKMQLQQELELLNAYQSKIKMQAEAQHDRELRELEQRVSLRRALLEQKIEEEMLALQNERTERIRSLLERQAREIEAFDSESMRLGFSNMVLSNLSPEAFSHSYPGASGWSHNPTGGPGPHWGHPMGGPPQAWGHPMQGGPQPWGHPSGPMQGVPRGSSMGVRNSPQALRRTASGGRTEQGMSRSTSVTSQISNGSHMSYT
Text: as §1

Row | SMILES | remaining activity at 1 µM (CHK1) [%] | remaining activity at 1 µM (ERK1) [%] | remaining activity at 1 µM (MAP4K5) [%] | remaining activity at 1 µM (MELK) [%] | remaining activity at 1 µM (MINK1) [%] | remaining activity at 1 µM (MKK2) [%] | remaining activity at 1 µM (RSK1) [%] | remaining activity at 1 µM (TAK1) [%] | remaining activity at 1 µM (TAO1) [%] | remaining activity at 1 µM (CHK1; 1 µM) [%] | remaining activity at 1 µM (ERK1; 1 µM) [%] | remaining activity at 1 µM (MAP4K5; 1 µM) [%] | remaining activity at 1 µM (MELK; 1 µM) [%] | remaining activity at 1 µM (MINK1; 1 µM) [%] | remaining activity at 1 µM (MKK2; 1 µM) [%] | remaining activity at 1 µM (RSK1; 1 µM) [%] | remaining activity at 1 µM (TAK1; 1 µM) [%] | remaining activity at 1 µM (TAO1; 1 µM) [%]
1 | COc1ccc(Cl)c(S(=O)(=O)Nc2ccc(-c3nc(OC[C@H]4CNCCO4)c4c(C)n[nH]c4n3)cc2)c1 [290-R, reference compound] | 95 | 115 | 19 | 11 | 101 | 41 | 7 | 101 | 110 |  |  |  |  |  |  |  |  | 
2 | Cc1ccc(F)c(S(=O)(=O)Nc2ccc(-c3nc(OC[C@H]4CNCCO4)c4cn[nH]c4n3)cc2)c1 [308-R, reference compound] | 109 | 106 | 63 | 19 | 83 | 80 | 7 | 74 | 123 |  |  |  |  |  |  |  |  | 
3 | Cc1ccc(F)c(S(=O)(=O)Nc2ccc(-c3nc(OC[C@H]4CN(CCCCCCOCCOCCOCC(=O)N[C@H](C(=O)N5C[C@H](O)C[C@H]5C(=O)NCc5ccc(-c6scnc6C)cc5)C(C)(C)C)CCO4)c4cn[nH]c4n3)cc2)c1 [SGK3-PROTAC1] |  |  |  |  |  |  |  |  |  | 111 | 103 | 99 | 91 | 115 | 114 | 83 | 108 | 99
4 | Cc1ccc(F)c(S(=O)(=O)Nc2ccc(-c3nc(OC[C@H]4CN(CCCCCCOCCOCCOCC(=O)N[C@H](C(=O)N5C[C@@H](O)C[C@H]5C(=O)NCc5ccc(-c6scnc6C)cc5)C(C)(C)C)CCO4)c4cn[nH]c4n3)cc2)c1 [cisSGK3-PROTAC1] |  |  |  |  |  |  |  |  |  | 126 | 101 | 101 | 100 | 116 | 124 | 90 | 107 | 105
